compound: CC1=CC(=C(N1C2=CC=C(C=C2)Cl)C)C(=O)CN3CCCCC3 [IU1-47] + Cc1nc(NC(=O)N2CCC[C@H]2C(N)=O)sc1-c1ccnc(C(C)(C)C(F)(F)F)c1 [Alpelisib] (partner 2 µM); test: relative viability (nuclei count vs DMSO), 5 days (fraction); higher = more cells survive; conditions: first compound 0.08 µM
How it was run: (§1)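 Each reported value is a median over duplicate plates. It expresses relative viability: treated-well nuclei count divided by vehicle-well nuclei count. Lung cancer cell lines in 1536-well plates were dosed by pin tool a day after seeding, alone with one drug or with a fixed anchor-drug dose plus five library-drug doses (not always all listed) in √10 steps, and nuclei were counted after 5 days.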

Cell Line	relative viability
HARA	1.02
NCI-H322M	0.802
LCLC-97TM1	0.276
NCI-H2009	1.24
A-427	1.09
NCI-H441	0.672
NCI-H661	0.909
NCI-H1734	0.645
NCI-H460	0.564
NCI-H2347	0.958
SK-LU-1	0.8
NCI-H1395	1.07
201T	1.08
NCI-H1915	1.07
HCC-827	1.08

same assay, conditions: first compound 0.253 µM

Cell Line	relative viability
HARA	1.13
NCI-H322M	0.82
LCLC-97TM1	0.248
NCI-H2009	1.18
A-427	1.08
NCI-H441	0.82
NCI-H661	0.603
NCI-H1734	0.714
NCI-H460	0.575
NCI-H2347	1.05
SK-LU-1	1.22
NCI-H1395	1.01
201T	1.04
NCI-H1915	1.11
HCC-827	1.05

same assay, conditions: first compound 0.8 µM

Cell Line	relative viability
HARA	0.925
NCI-H322M	0.805
LCLC-97TM1	0.249
NCI-H2009	1.13
A-427	1.14
NCI-H441	0.616
NCI-H661	0.581
NCI-H1734	0.65
NCI-H460	0.532
NCI-H2347	1.11
SK-LU-1	0.943
NCI-H1395	1.04
201T	0.938
NCI-H1915	1.13
HCC-827	0.91

same assay, conditions: first compound 2.53 µM

Cell Line	relative viability
HARA	1.1
NCI-H322M	0.755
NCI-H2009	1.18
NCI-H441	0.92
NCI-H661	0.593
NCI-H460	0.587
NCI-H2347	1.05
SK-LU-1	1.31
HCC-827	1.1

same assay, conditions: first compound 8 µM

Cell Line	relative viability
HARA	0.604
NCI-H322M	0.831
LCLC-97TM1	0.242
NCI-H2009	1.21
A-427	1.04
NCI-H441	0.779
NCI-H661	0.404
NCI-H1734	0.708
NCI-H460	0.488
NCI-H2347	1.11
SK-LU-1	0.807
NCI-H1395	0.991
201T	1.04
NCI-H1915	1.07
HCC-827	0.905

compound: Cc1nc(C(=O)NCC(=O)O)c(O)c2ccc(Oc3ccccc3)cc12 [FG-4592] + CC(=O)Nc1cccc(-n2c(=O)n(C3CC3)c(=O)c3c(Nc4ccc(I)cc4F)n(C)c(=O)c(C)c32)c1 [Trametinib] (partner 0.02 µM); test: as above; conditions: first compound 0.08 µM
How it was run: as §1

Cell Line	relative viability
LCLC-97TM1	0.211
NCI-H2009	0.32
A-427	0.772
NCI-H441	0.497
NCI-H661	0.559
NCI-H1734	0.719
NCI-H460	0.163
NCI-H2347	0.315
SK-LU-1	0.402
NCI-H1395	0.961
201T	0.691
NCI-H1915	0.304
HCC-827	0.495

same assay, conditions: first compound 0.253 µM

Cell Line	relative viability
NCI-H322M	0.482
LCLC-97TM1	0.241
NCI-H2009	0.181
A-427	0.724
NCI-H441	0.433
NCI-H661	0.525
NCI-H1734	0.631
NCI-H460	0.13
NCI-H2347	0.323
SK-LU-1	0.395
NCI-H1395	1.01
201T	0.695
NCI-H1915	0.266
HCC-827	0.491

same assay, conditions: first compound 0.8 µM

Cell Line	relative viability
NCI-H322M	0.475
NCI-H2009	0.262
A-427	0.677
NCI-H441	0.401
NCI-H661	0.536
NCI-H1734	0.618
NCI-H460	0.127
NCI-H2347	0.267
SK-LU-1	0.461
NCI-H1395	0.936
201T	0.719
NCI-H1915	0.274
HCC-827	0.48

same assay, conditions: first compound 2.53 µM

Cell Line	relative viability
HARA	0.586
NCI-H322M	0.497
LCLC-97TM1	0.225
NCI-H2009	0.31
A-427	0.72
NCI-H441	0.3
NCI-H661	0.554
NCI-H1734	0.733
NCI-H460	0.0958
NCI-H2347	0.326
SK-LU-1	0.422
NCI-H1395	1.03
201T	0.772
NCI-H1915	0.287
HCC-827	0.532

same assay, conditions: first compound 8 µM

Cell Line	relative viability
HARA	0.667
NCI-H322M	0.438
LCLC-97TM1	0.148
NCI-H2009	0.162
A-427	0.723
NCI-H441	0.497
NCI-H661	0.525
NCI-H1734	0.559
NCI-H460	0.129
NCI-H2347	0.28
SK-LU-1	0.379
NCI-H1395	0.773
201T	0.708
NCI-H1915	0.258
HCC-827	0.506

compound: Cc1nc(C(=O)NCC(=O)O)c(O)c2ccc(Oc3ccccc3)cc12 [FG-4592] + CCNC(=O)c1noc(-c2cc(C(C)C)c(O)cc2O)c1-c1ccc(CN2CCOCC2)cc1 [Luminespib] (partner 0.01 µM); test: as above; conditions: first compound 0.08 µM
How it was run: as §1

Cell Line	relative viability
HARA	0.73
NCI-H322M	0.82
LCLC-97TM1	0.763
NCI-H2009	1.04
A-427	0.912
NCI-H441	0.314
NCI-H661	0.94
NCI-H1734	0.183
NCI-H460	0.0351
NCI-H2347	0.4
SK-LU-1	0.184
NCI-H1395	0.34
201T	1.04
NCI-H1915	0.721
HCC-827	0.643

same assay, conditions: first compound 0.253 µM

Cell Line	relative viability
HARA	0.787
NCI-H322M	0.841
LCLC-97TM1	0.728
NCI-H2009	0.936
A-427	0.926
NCI-H441	0.307
NCI-H661	0.888
NCI-H1734	0.185
NCI-H460	0.0212
SK-LU-1	0.174
NCI-H1395	0.685
201T	0.984
NCI-H1915	0.828
HCC-827	0.587

same assay, conditions: first compound 0.8 µM

Cell Line	relative viability
HARA	0.834
NCI-H322M	0.666
LCLC-97TM1	0.854
NCI-H2009	1.01
A-427	0.89
NCI-H441	0.307
NCI-H661	0.961
NCI-H1734	0.177
NCI-H460	0.0354
NCI-H2347	0.258
SK-LU-1	0.187
NCI-H1395	0.583
201T	1.06
NCI-H1915	0.911
HCC-827	0.702

same assay, conditions: first compound 2.53 µM

Cell Line	relative viability
HARA	0.621
NCI-H322M	0.818
LCLC-97TM1	0.695
NCI-H2009	0.959
A-427	1.18
NCI-H441	0.443
NCI-H661	0.863
NCI-H1734	0.192
NCI-H460	0.0343
NCI-H2347	0.323
SK-LU-1	0.223
NCI-H1395	0.61
201T	1.03
NCI-H1915	0.781
HCC-827	0.657

same assay, conditions: first compound 8 µM

Cell Line	relative viability
HARA	0.709
NCI-H322M	0.623
LCLC-97TM1	0.797
NCI-H2009	0.999
A-427	1
NCI-H441	0.287
NCI-H661	0.951
NCI-H1734	0.178
NCI-H460	0.0187
NCI-H2347	0.293
SK-LU-1	0.202
NCI-H1395	0.753
201T	1.06
NCI-H1915	0.697
HCC-827	0.591

compound: Cc1nc(C(=O)NCC(=O)O)c(O)c2ccc(Oc3ccccc3)cc12 [FG-4592] + C[C@]1(O)C[C@@H](c2nc(-c3ccc4ccc(-c5ccccc5)nc4c3)c3c(N)nccn32)C1 [Linsitinib] (partner 1 µM); test: as above; conditions: first compound 0.08 µM
How it was run: as §1

Cell Line	relative viability
HARA	0.955
NCI-H322M	0.858
LCLC-97TM1	0.179
NCI-H2009	1.19
A-427	1.06
NCI-H441	0.451
NCI-H661	0.475
NCI-H1734	0.896
NCI-H460	0.708
NCI-H2347	1.09
SK-LU-1	1.02
NCI-H1395	1.06
201T	0.943
NCI-H1915	1.06
HCC-827	1.02

same assay, conditions: first compound 0.253 µM

Cell Line	relative viability
HARA	0.881
NCI-H322M	0.914
LCLC-97TM1	0.191
NCI-H2009	1.08
A-427	1.05
NCI-H441	0.498
NCI-H661	0.588
NCI-H1734	0.814
NCI-H460	0.665
SK-LU-1	0.89
NCI-H1395	0.949
201T	0.963
NCI-H1915	1.07
HCC-827	0.895

same assay, conditions: first compound 0.8 µM

Cell Line	relative viability
NCI-H322M	0.807
LCLC-97TM1	0.17
NCI-H2009	1.28
A-427	1.06
NCI-H441	0.477
NCI-H661	0.55
NCI-H1734	0.716
NCI-H460	0.788
NCI-H2347	0.822
SK-LU-1	0.971
201T	0.897
NCI-H1915	1.19
HCC-827	0.984

same assay, conditions: first compound 2.53 µM

Cell Line	relative viability
HARA	0.996
NCI-H322M	0.92
NCI-H2009	1.21
A-427	1.14
NCI-H441	0.57
NCI-H661	0.678
NCI-H1734	0.875
NCI-H460	0.766
NCI-H2347	0.927
NCI-H1395	1.05
201T	1.08
NCI-H1915	1.11
HCC-827	0.975

same assay, conditions: first compound 8 µM

Cell Line	relative viability
HARA	1.03
NCI-H322M	0.861
LCLC-97TM1	0.183
NCI-H2009	1.19
A-427	1.1
NCI-H441	0.562
NCI-H661	0.446
NCI-H1734	0.927
NCI-H460	0.748
NCI-H2347	1.01
SK-LU-1	0.928
NCI-H1395	0.824
201T	1.02
NCI-H1915	1.07
HCC-827	0.945

Reference: the supplement of paper PMC10307832
